Assay results as given in patent US20030212100A1, “Quinoline derivatives and medicinal use thereof” (priority 2000, published 2003).

Columns and labels:
Type in all cases: cell-based
[1] = test system: TNFα transcription (human TNF transcription-controlling region); assay: Inhibition of TNFα production: luciferase under human TNF transcription-controlling region in 3T3-L1 cell strain No. 46; settings: 10 μM compound; luciferase activity with DMSO taken as 100 (no hTNF: 40%); 24 hours
Description: Test for in-vitro Evaluation of the Action of Inhibiting the Production of Tumor Necrosis Factor α (TNFα) Using Lipocytes (Derived from 3T3-L1)
A luciferase gene was bonded to the downstream side of human TNF transcription-controlling region. The resulting material was stably inserted into the chromosomes of 3T3-L1 cells. The thus-obtained cell strain No. 46 was used for evaluation.
The cell strain No. 46 was cultivated according to an ordinary method. Specifically, a bovine serum (Cell Culture Technology, Catalogue No. CC017-502) was added to a Dulbecco's modified Eagle's medium (DMEM) so that the final concentration became 10%. Further, 50 U/ml of penicillin G, 50 ug/ml of streptomycin sulfate and 0.4 mg/ml of G418 were added. In the resulting medium was conducted cultivation in a 5% carbon dioxide gas at 37° C.
The cell strain No. 46 was planted into a PLL (poly L-lysine)-coated 48-well plate. When the cell strain reached confluence and then at least two days passed, the medium was substituted with the above medium containing 9 ng/m of hTNF (Genzyme) and an activity for TNFα transcription was induced. hTNF was added and, simultaneously therewith, a compound of the present invention was added so that the final concentration became 10 μM. 24 hours later, the cells were observed by a microscope. Then, the cells were fused and the luciferase activity was measured according to an ordinary method.
Regarding the activity for TNFα transcription, the luciferase activity when DMSO was added in place of the compound, was taken as 100; and the relative activity when 10 uM of the present compound was added, was shown in Table 1. Incidentally, the relative luciferase activity when no hTNF was added, was 40%.

[2] = molecular target: T1, human PPARα receptor (Homo sapiens, UniProt Q07869); assay: Luciferase reporter assay of PPARα agonist activity (Gal4-PPARα chimera receptor in CV-1 cells); settings: luciferase activity with 10 μM Wy-14,643 taken as 100, read-out: PPARα agonist activity, relative activity; for Emax at 0.1 µM: CV-1, 0.1 μM compound; for Emax at 1 µM: CV-1, 1 μM compound; for Emax at 10 µM: CV-1, 10 μM compound
T1 construct: expressed in transfected cells; host or cells: CV-1 cells (pSG5-based expression vector)
T1 sequence (Q07869 167-468): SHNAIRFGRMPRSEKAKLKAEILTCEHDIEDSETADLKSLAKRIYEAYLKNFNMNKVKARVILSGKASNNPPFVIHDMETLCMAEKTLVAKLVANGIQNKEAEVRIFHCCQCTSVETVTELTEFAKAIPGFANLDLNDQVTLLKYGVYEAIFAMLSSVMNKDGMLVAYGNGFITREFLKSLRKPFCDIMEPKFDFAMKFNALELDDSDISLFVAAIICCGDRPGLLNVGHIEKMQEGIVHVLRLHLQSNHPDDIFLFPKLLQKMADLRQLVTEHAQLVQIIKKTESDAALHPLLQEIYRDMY
Experimental: (§1) Measurement of PPARα Agonist Activity and PPARγ Agonist Activity
(§2) 1. Materials for Assay of Luciferase Using Human PPARα and PPARγ Receptors
(§3) The entire procedure was carried out according to the fundamental methods of genetic engineering and the ordinary method in the yeast one-hybrid or two-hybrid system was applied.
(§4) PGL2-UAS5-TK-luc was prepared as a reporter plasmid carrying a response sequence of Gal4 protein as a basic transcription factor of yeast, an enhancer sequence with five repeat part of UAS, a luciferase gene (luc) under the control of timidine kinase (TK) promoter. Specifically, a DNA fragment encoding a TK promoter (−105/+51) on the downstream side of an enhancer sequence comprising two time repeat of UAS was amplified by PCR using pRL-TK carrying a TK promoter (Promega, Trade name: Catalogue No. E2241) as the template and the primers: […]
(§5) After the fragment was cleaved with XhoI-Hind III, pGL2-UAS2-TK-luc was obtained by inserting the resultant fragment into the XhoI-Hind III site located on the upstream side of a luciferase structural gene on pGL2-Basic vector (Promega, Trade name: Catalogue No. E1641).
(§6) After cleavage of a synthetic DNA as an enhancer sequence comprising three time repeat of Gal4 response sequence (SEQ ID NO: 3): 5′-ATTGGTAC([…])×3 AGATCTCGAC) using KpnI and BgIII was carried out, pGL2-UAS5-TK-luc was prepared by inserting the resulting fragment into the KpnI-BgIIIb site of pGL2-UAS2-TK-luc.
(§7) A vector for expression of a chimera receptor protein, in which a ligand binding region of an internuclear receptor human PPARα or PPARγ receptor was fused with the carboxyl terminal of a DNA binding region of yeast Ga14 protein, was prepared as follows:
(§8) The structural gene of pSG5 (STRATAGENE, Trade Name: Catalogue No. 216201) as the basic expression vector was changed for the chimera receptor except that the promoter-enhancer region was maintained as it was.
(§9) The DNA encoding the ligand binding region of the human PPARα or PPARγ receptor was fused on the downstream side of the DNA encoding the DNA binding region and the amino acid sequence from 1 to 147 positions of Ga14 protein so that their reading frames were fitted and the resulting fused DNA was inserted into pSG5 (trade name) on the down stream side of the promoter-enhancer region. In this step, the DNA sequence was arranged so that a signal for transfer into the nucleus (Ala Pro Lys Lys Lys Arg Lys Val Gly (SEQ ID: No: 4) derived from SV-40T antigen was located on the amino terminal of the ligand binding region of PPARα or PPARγ receptor in order to localize the chimera receptor in the nucleus.
(§10) Based on comparison of the human PPAR receptors described in R. Mukherjee et al., [see J. Steroid Biochem. Molec. Biol., Vol. 51, p157 (1994)] and M. E. Green et al., [see Gene Expression, Vol. 4, p281 (1995))], as the structural gene part used for the ligand binding region PPARα or PPARγ, the human PPARα ligand binding region: Ser167-Tyr468; and the PPARγ ligand binding region: Ser176-Tyr478 were used, which had the same sequences corresponding to Ser204-Tyr506 for human PPARγ1 receptor and human PPARγ2, respectively.
(§11) In order to monitor influence against the basic transcription, an expression vector was prepared which carried a DNA encoding only the DNA binding region and the amino acid sequence from 1 to 147 position of Ga14 protein defective in its PPAR ligand binding region and a signal for transfer into the nucleus of SV-40T-antigen.
(§12) 2. Assay of Luciferase Using Human PPARα or PPARγ Receptor
(§13) CV-1 cells used as a host cell were cultivated according to an ordinary method. Specifically, a fetal bovine serum (Intergent, Catalogue No. 1020-90) was added to a Dulbecco's modified Eagle's medium (DMEM) so that the final concentration became 10%. Further, penicillin G (50 U/ml) and streptomycin sulfate (50 μg/ml) were added. Cultivation was conducted in the resulting medium in a 5% carbon dioxide gas at 37° C. […]

[3] = molecular target: T2, human PPARγ receptor (Homo sapiens, UniProt P37231); assay: Luciferase reporter assay of PPARγ agonist activity (Gal4-PPARγ chimera receptor in CV-1 cells); settings: luciferase activity with 1 μM Pioglitazone taken as 100, read-out: PPAR γ agonist activity, relative activity; for Emax at 0.1 µM: CV-1, 0.1 μM compound; for Emax at 1 µM: CV-1, 1 μM compound; for Emax at 10 µM: CV-1, 10 μM compound
T2 construct: corresponding to Ser204-Tyr506 for human PPARγ1 receptor and human PPARγ2; expressed in transfected cells; host or cells: CV-1 cells (pSG5-based expression vector)
T2 sequence (P37231 204-505 limits assumed): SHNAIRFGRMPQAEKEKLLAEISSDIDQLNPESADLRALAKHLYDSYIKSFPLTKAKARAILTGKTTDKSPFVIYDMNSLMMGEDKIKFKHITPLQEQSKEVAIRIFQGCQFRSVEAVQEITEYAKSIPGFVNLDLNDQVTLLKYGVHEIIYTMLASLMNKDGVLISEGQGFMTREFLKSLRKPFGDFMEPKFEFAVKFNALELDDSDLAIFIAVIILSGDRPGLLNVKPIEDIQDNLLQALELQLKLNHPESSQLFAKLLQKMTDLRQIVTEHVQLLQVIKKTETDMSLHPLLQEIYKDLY
Experimental: as §1, §2, §3, §4, §5, §6, §7, §8, §9, §10, §11, §12, §13

Row | SMILES | Activity for TNFα transcription, relative activity [1] | Emax at 0.1 µM [2] [%] | Emax at 1 µM [2] [%] | Emax at 10 µM [2] [%] | Emax at 0.1 µM [3] [%] | Emax at 1 µM [3] [%] | Emax at 10 µM [3] [%]
1 | CCCCNC(=O)C(Cc1ccc(OCc2cnc3ccc(OC)cc3c2OC(C)C)cc1)OCC (stereo not shown) [Example 4 (104), 2-ethoxy-3-{[4-(4-isopropoxy-6-methoxyquinoline-3-yl)methyloxy]phenyl}propanoic acid N-butylamide] | 64.0 | 0.3 | 0.3 | 0.3 | 0.4 | 1.1 | 14.9
2 | COc1ccc2ncc(COc3ccc(C=C(C(C)=O)C(C)=O)cc3)c(OC(C)C)c2c1 [Example 26 (147), 3-{[4-(4-isopropoxy-6-methoxyquinoline-3-yl)methyloxy]phenylmethylene}-2,4-dioxopentane] | 59.0 |  |  |  | 0.1 | 3.7 | 12.8
3 | CCOC(Cc1ccc(OCc2cnc3ccc(OC)cc3c2OC(C)C)cc1)C(N)=O (stereo not shown) [Example 3 (102), 2-ethoxy-3-{[4-(4-isopropoxy-6-methoxyquinoline-3-yl)methyloxy]phenyl}propanoic acid amide] | 71.7 | 0.4 | 0.9 | 8.5 | 74.1 | 114 | 108
4 | CNC(=O)C(Cc1ccc(OCc2cnc3ccc(OC)cc3c2OC(C)C)cc1)C(C)=O (stereo not shown) [Example 24 (141), 2-{[4-(4-isopropoxy-6-methoxyquinoline-3-yl)methyloxy]phenylmethyl}-3-oxobutanoic acid N-methylamide] | 71.6 |  |  |  | 0.8 | 1.2 | 9.4
